Earlier results, collected in PMC5427923, “A novel CCR2 antagonist inhibits atherogenesis in apoE deficient mice by achieving high receptor occupancy” (Scientific Reports, 2017).

Assays:
[1] = system: apoE−/− mice; set-up: method as in Aiello et al. [11]; details: ref Aiello et al. [11], cited from earlier work
[2] = system: CCR2; set-up: method as in PMID 16210643; details: single oral dose of 50 mg/kg, mice; ref [35]; cited from earlier work
[3] = system: hCCR2b; details: hCCR2; ref Vilums et al. [24]; cited from earlier work

| SMILES | size of early and advanced atherosclerotic lesions ([1]; apoE−/− mice) | inflammatory monocyte levels ([1]; up to 6 hours after oral infusion, lost at 9 hours) | CCR2 inhibition [2] | RT [3] [min] |
| --- | --- | --- | --- | --- |
| CCO[C@H]1CN(C2CCC(O)(c3ccc4c(c3)OCO4)CC2)C[C@@H]1NC(=O)CNC(=O)c1cccc(C(F)(F)F)c1 (mixture of isomers) [INCB3344] | failed to decrease | significantly reduced | approximately 75% |  |
| CO[C@@H]1COCC[C@@H]1N[C@@H]1CC[C@@](C(=O)N2CCc3ncc(C(F)(F)F)cc3C2)(C(C)C)C1 [MK-0812, reference compound] |  |  |  | 92 |
